The record followed here is patent US20030040510A1, “Selective estrogen receptor modulators in combination with estrogens” (Endorecherche, Inc., priority 2000, published 2003).

For one experiment, the system named is human Ishikawa cells. In words: Alkaline phosphatase activity in human endometrial adenocarcinoma Ishikawa cells. The experiment is classed as cell-based. To be noted: 5 days. The procedure:
The human Ishikawa cell line derived from a well differentiated endometrial adenocarcinoma was kindly provided by Dr. Erlio Gurpide, The Mount Sinai Medical Center, New York, N.Y. The Ishikawa cells were routinely maintained in Eagle's Minimum Essential Medium (MEM) containing 5% (vol/vol) FBS (Fetal Bovine Serum) and supplemented with 100 U/ml penicillin, 100 μg/ml streptomycin, 0.1 mM non-essential amino acids solution. Cells were plated in Falcon T75 flasks at a density of 1.5×10^6 cells at 37° C.
Twenty four hours before the start of the experiment, the medium of near confluent Ishikawa cells was replaced by fresh estrogen-free basal medium (EFBM) consisting of a 1:1 (v:v) mixture of phenol red-free Ham's F-12 and Dulbecco's Modified Eagle's Medium (DMEM) supplemented with 100 U/mL penicillin, 100 μg/mL streptomycin, 2 mM glutamine, and 5% FBS treated twice with dextran-coated charcoal to remove endogenous steroids. Cells were then harvested by 0.1% pancreatin (Sigma) and 0.25 mM HEPES, resuspended in EFBM and plated in Falcon 96, well flat-bottomed microtiter plates at a density of 2.2×10^4 cells/well in a volume of 100 μl and allowed to adhere to the surface of the plates for 24 h. Thereafter, medium was replaced with fresh EFBM containing the indicated concentrations of compounds in a final volume of 200 μl. Cells were incubated for five days, with a medium change after 48 h.
At the end of the incubation period, microtiter plates were inverted and growth medium was decanted. The plates were rinsed with 200 μl by well of PBS (0.15M NaCl, 10 mM sodium phosphate, pH 7.4). PBS was then removed from the plates while carefully leaving some residual PBS, and the wash procedure was repeated once. The buffered saline was then decanted, and the inverted plates were blotted gently on a paper towel. Following replacement of the covers, the plates were placed at −80° C. for 15 min followed by thawing at room temperature for 10 min. […] Plates were monitored at 405 nm in an enzyme-linked immunosorbent assay plate reader (BIO-RAD, model 2550 EIA Reader).

Experiment [1] relates to human breast cancer ZR-75-1 xenografts. The experiment in a line: Tamoxifen-stimulated growth of ZR-75-1 xenografts in nude mice with or without EM-652.HCl (FIG. 9). The format is in vivo.
Another experiment deals with ZR-75-1 breast tumors. In words: Growth and response category of human ZR-75-1 breast tumors in OVX nude mice, 7 antiestrogens, 161 days (Example 8). The experiment is classed as in vivo.
[2] abbreviates: 50 μg daily + estrone, 161 days.

Entries after “also recorded” stand apart in the source; their conditions may differ.

The term IC50 denotes the concentration at which inhibition is half-maximal. With `CC1=C(c2ccc(O)cc2)[C@H](c2ccc(OCCN3CCCCC3)cc2)Oc2cc(O)ccc21.Cl` [EM-652.HCl, (S)-(+)-7-hydroxy-3-(4′-hydroxyphenyl)-4-methyl-2-(4″-(2′″-piperidinoethoxy)phenyl)-2H-1-benzopyran hydrochloride], the “Maximal inhibition of 1 nM E2-induced stimulation of alkaline phosphatase” value in the experiment on human Ishikawa cells (1 nM E2) is on record as 98.97 ± 0.174 (18). The IC50 in the experiment with human Ishikawa cells (Homo sapiens, 120 h, 1 nM E2, read-out: Inhibition of 1 nM E2-induced stimulation of alkaline phosphatase IC50) worked out at 1.52 ± 0.22 nM. Moreover, the Emax in the experiment with human Ishikawa cells (Homo sapiens, 120 h, read-out: Maximal stimulation of alkaline phosphatase, % of 1 nM E2 stimulation) worked out at 1.88 ± 0.26%. Further, in experiment [1] (EM-652.HCl by itself, hydrochloride), the “Effect on tumor growth in the absence of Tamoxifen” value is “has no effect on tumor growth; also recorded: did not exert any stimulatory effect”. For the same compound, in experiment [1] (simultaneous treatment with Tamoxifen), the “Effect on the stimulatory effect of Tamoxifen on tumor growth” value is given as “completely blocked”. Further, in the experiment on ZR-75-1 breast tumors (setting [2]), the “Complete response, of tumors” value is on record as 17%; the “Partial response, of tumors” value is recorded as 17%; the Progressing tumors was 7%; the “Stable response, of tumors” value came to 60%. In addition, in the experiment on ZR-75-1 breast tumors (50 μg daily oral + estrone, 23 weeks), the “Effect on estrone-stimulated tumor growth” value is given as “completely prevented tumor growth”. Further, in the experiment on ZR-75-1 breast tumors (200 μg daily alone, absence of estrone, 161 days), the “Change of ZR-75-1 tumor size compared to the OVX control group” value was “did not significantly change”.
